Source: PMC7492732, “Offloading Role of a Discrete Thioesterase in Type II Polyketide Biosynthesis” (mBio, 2020)

Biological target: T1, FscTE (Streptomyces sp. FR-008, UniProt Q6W5Q5)
T1 construct: His6 tag, pET28a, expressed in E. coli BL21(DE3)/pGro7
T1 sequence (Q6W5Q5 1-285): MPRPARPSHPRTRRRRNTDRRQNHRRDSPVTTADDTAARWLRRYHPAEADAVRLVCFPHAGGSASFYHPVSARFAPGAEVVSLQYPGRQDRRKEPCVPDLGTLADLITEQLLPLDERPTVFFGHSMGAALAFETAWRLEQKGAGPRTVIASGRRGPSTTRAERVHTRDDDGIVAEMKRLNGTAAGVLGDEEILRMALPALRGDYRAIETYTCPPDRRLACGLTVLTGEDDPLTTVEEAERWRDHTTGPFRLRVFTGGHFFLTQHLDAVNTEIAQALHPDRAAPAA
Test: DTNB spectrophotometric assay at […] nm
Format: biochemical

CCCC(=O)SCCNC(C)=O [butyryl-SNAC]
DTNB spectrophotometric assay at 412 nm: A similar phenomenon was observed when butyryl-SNAC was used as a substrate
